Source: patent US12252524B2, “GIP/GLP1 co-agonist compounds” (Eli Lilly and Company, priority 2018, dated 2025)

Experiments:
human Gcg receptor = target: T1, human Gcg receptor (Homo sapiens, UniProt P47871); assay: [125I]-Glucagon binding (SPA), human Gcg receptor
T1 construct: expressed in transfected cells; crude membranes
Outline: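 Cell pellets were lysed in hypotonic Tris buffer, pH 7.5, homogenized, and spun at low then high speed to give crude membranes. Ki was derived from the fitted IC50.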

human GIP receptor = target: T2, human GIP receptor (Homo sapiens, UniProt P48546); assay: [125I]-GIP binding (SPA), human GIP receptor
T2 construct: expressed in transfected cells; crude membranes
T2 sequence (P48546 22-466): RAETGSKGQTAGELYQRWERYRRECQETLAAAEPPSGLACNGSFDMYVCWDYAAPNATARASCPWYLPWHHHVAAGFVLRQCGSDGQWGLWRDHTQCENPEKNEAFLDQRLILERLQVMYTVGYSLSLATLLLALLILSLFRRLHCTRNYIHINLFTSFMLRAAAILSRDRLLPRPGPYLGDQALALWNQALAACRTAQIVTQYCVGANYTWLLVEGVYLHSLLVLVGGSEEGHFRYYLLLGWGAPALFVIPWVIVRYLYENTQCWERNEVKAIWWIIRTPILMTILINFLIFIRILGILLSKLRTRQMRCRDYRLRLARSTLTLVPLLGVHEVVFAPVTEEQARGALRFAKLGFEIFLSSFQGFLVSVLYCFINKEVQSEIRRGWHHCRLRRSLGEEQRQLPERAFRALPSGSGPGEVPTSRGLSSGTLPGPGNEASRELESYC

[1] = target: human GLP-1 receptor (GLP-1R) (Homo sapiens, UniProt P43220); assay: cAMP pharmacological functional assay in presence of casein, hGLP-1R; format: cell-based
Chain of human GLP-1 receptor (GLP-1R) (P43220 24-463): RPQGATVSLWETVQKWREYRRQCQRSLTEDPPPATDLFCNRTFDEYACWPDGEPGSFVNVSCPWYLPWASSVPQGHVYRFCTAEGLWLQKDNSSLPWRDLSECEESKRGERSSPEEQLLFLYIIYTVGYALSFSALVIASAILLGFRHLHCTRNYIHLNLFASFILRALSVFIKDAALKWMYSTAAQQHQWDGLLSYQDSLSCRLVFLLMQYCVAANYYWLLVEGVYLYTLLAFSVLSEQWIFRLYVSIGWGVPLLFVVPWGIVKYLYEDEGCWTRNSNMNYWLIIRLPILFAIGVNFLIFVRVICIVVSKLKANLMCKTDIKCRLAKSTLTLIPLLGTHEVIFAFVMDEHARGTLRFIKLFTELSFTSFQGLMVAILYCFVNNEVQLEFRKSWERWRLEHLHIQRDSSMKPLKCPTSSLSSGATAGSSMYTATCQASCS

[2] = target: T3, gastric inhibitory peptide receptor (GIPR) (Homo sapiens, UniProt P48546); assay: cAMP pharmacological functional assay in presence of casein, hGIPR; format: cell-based
T3 sequence (P48546 22-466): T2 sequence (P48546 22-466)

[3] = Proteolytic stability assay in 90% pig small intestinal fluid (pSIF); format: in vitro ADME; details: 90% pSIF, 37° C.
Description: Peptides are diluted to a concentration of 0.4 mg/mL in 90% pig small intestinal fluid. After the mixing, 20 μL are immediately removed (time 0 for the time point of pre-incubation). The mixture is then incubated at 37° C. at 150 rpm. […] The sample is centrifuged at 20,000×g for 20 min at 4° C.
The data analysis is performed using MassLynx.

human GLP-1R [4] = target: T4, human GLP-1R (Homo sapiens, UniProt P43220); assay: [125I]-GLP-1 binding (SPA), human GLP-1 receptor; set-up: expressed in transfected cells; crude membranes
T4 sequence (P43220 24-463): as above
Outline: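 Ki values are geometric means with SEM over independent replicates on different days, derived from IC50s fitted by four-parameter nonlinear regression. The assay used crude cell membranes in HEPES buffer, pH 7.4, containing CaCl2, MgCl2, bacitracin and TWEEN-20.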

human GLP-1R [5] = target: T4, human GLP-1R; assay: GLP-1R HEK293 cell membrane [35S]GTPγS binding assay; format: biochemical; set-up: expressed in transfected cells; host or cells: HEK293 cells expressing human GLP-1R; membranes
Outline: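 Membranes from HEK293 cells expressing the receptor incubated with peptide and […] [35S]GTPγS in HEPES pH 7.4 buffer with NaCl, MgCl2, saponin and BSA, 30 min at room temperature. Gαs-bound label captured by anti-Gαs antibody/SPA beads and counted; EC50 from four-parameter logistic fit.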

T1 sequence (P47871 26-477): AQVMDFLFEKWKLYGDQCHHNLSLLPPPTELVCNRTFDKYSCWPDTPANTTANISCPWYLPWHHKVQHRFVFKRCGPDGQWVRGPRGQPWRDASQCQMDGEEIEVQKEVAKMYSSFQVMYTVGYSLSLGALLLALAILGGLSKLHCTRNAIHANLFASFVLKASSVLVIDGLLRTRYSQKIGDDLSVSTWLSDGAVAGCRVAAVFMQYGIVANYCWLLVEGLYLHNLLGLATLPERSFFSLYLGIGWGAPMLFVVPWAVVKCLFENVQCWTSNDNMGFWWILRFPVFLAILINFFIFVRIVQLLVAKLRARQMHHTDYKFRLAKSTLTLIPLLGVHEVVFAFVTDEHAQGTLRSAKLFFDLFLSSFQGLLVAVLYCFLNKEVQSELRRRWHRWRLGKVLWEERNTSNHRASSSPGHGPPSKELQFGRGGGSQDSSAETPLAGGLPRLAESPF

## CC[C@H](C)[C@H](NC(=O)[C@H](CC(C)C)NC(=O)[C@](C)(Cc1ccc(O)cc1)NC(=O)[C@@H](CCC(=O)O)NC(=O)[C@@H](NC(=O)[C@H](Cc1ccccc1)NC(=O)[C@H](CCC(=O)O)NC(=O)C(C)(C)NC(=O)[C@H](CCC(N)=O)NC(=O)[C@H](C)NC(=O)[C@H](CCCCNC(=O)COCCOCCNC(=O)COCCOCCNC(=O)CC[C@H](NC(=O)CCCCCCCCCCCCCCCCC(=O)O)C(=O)O)NC(=O)[C@H](CCCN)NC(=O)[C@H](CC(=O)O)NC(=O)[C@H](CC(C)C)NC(=O)[C@](C)(CC(C)C)NC(=O)[C@@H](NC(=O)[C@H](CO)NC(=O)[C@@H](NC(=O)[C@H](CC(=O)O)NC(=O)[C@H](CO)NC(=O)[C@@H](NC(=O)[C@](C)(Cc1ccccc1F)NC(=O)[C@@H](NC(=O)CNC(=O)[C@H](CCC(=O)O)NC(=O)C(C)(C)NC(=O)[C@@H](N)Cc1ccc(O)cc1)[C@@H](C)O)[C@@H](C)O)C(C)C)[C@@H](C)CC)[C@@H](C)CC)C(=O)N[C@@H](CCC(=O)O)C(=O)NCC(=O)NCC(=O)N1CCC[C@H]1C(=O)N[C@@H](CO)C(=O)N[C@@H](CO)C(=O)NCC(=O)N[C@@H](C)C(=O)N1CCC[C@H]1C(=O)N1CCC[C@H]1C(=O)N1CCC[C@H]1C(=O)N[C@@H](CO)C(N)=O [Example 5]
Human Gcg receptor
  Ki: 519 nM
Human GIP receptor
  Ki: 0.0611 nM
[1]
  EC50: 0.0164 nM
[2]
  EC50: 0.0309 nM
[3]; 0 min
  percentage of peptide not cleaved using pSIF: 100%
[3]; pig, 90% pig small intestinal fluid (pSIF), 30 min, read-out: percentage of peptide not cleaved using pSIF
  remaining at 0.5 h, 0.4 mg/mL: 76.9%
[3]; pig, 90% pig small intestinal fluid (pSIF), 45 min, read-out: percentage of peptide not cleaved using pSIF
  remaining at 0.75 h, 0.4 mg/mL: 56.8%
[3]; pig, 90% pig small intestinal fluid (pSIF), 60 min, read-out: percentage of peptide not cleaved using pSIF
  remaining at 1 h, 0.4 mg/mL: 60.7%
Human GLP-1R [4]
  Ki: 0.902 nM
Human GLP-1R [5]
  EC50: 0.196 nM
